Source: PubChem BioAssay (NCI)
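Five concentrations, 48 hours, 96-well plates. The concentration for full growth arrest is given as TGI.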

Legend:
Test in all cases: NCI anticancer screen, dose series, 48 h
A498 renal = tested on: A498 renal
CCRF-CEM leukemia = tested on: CCRF-CEM leukemia
COLO 205 colon = tested on: COLO 205 colon
HS 578T breast = tested on: HS 578T breast
MALME-3M melanoma = tested on: MALME-3M melanoma
MDA-MB-435 = tested on: MDA-MB-435
MOLT-4 leukemia = tested on: MOLT-4 leukemia
SK-MEL-5 melanoma = tested on: SK-MEL-5 melanoma
UACC-257 melanoma = tested on: UACC-257 melanoma
UACC-62 melanoma = tested on: UACC-62 melanoma

SMILES | TGI (A498 renal) [µM] | TGI (CCRF-CEM leukemia) [µM] | TGI (COLO 205 colon) [µM] | TGI (HS 578T breast) [µM] | TGI (MALME-3M melanoma) [µM] | TGI (MDA-MB-435) [µM] | TGI (MOLT-4 leukemia) [µM] | TGI (SK-MEL-5 melanoma) [µM] | TGI (UACC-257 melanoma) [µM] | TGI (UACC-62 melanoma) [µM]
CCOP(=O)(OCC)/C(C#N)=C/c1ccccn1 | > 100 | > 100 | > 100 | > 100 | > 100 | > 100 | > 100 | > 100 | > 100 | > 100
CC[C@@H](CCCCC1CC[C@H]2CC(=O)C[C@@H]12)OC (some centres not stated) | > 100 | > 100 | > 100 | > 100 | > 100 | > 100 | > 100 | > 100 | > 100 | > 100
COc1cc(/C=N/N=C(\N)NO)cc(OC)c1OC | > 100 | > 100 | > 100 | > 100 | 82.7 | > 100 | > 100 | 44.7 | > 100 | 50.5
CC(C)(C)C(=O)Oc1ccc(/C=C/C(=O)c2ccc(OC(=O)C(C)(C)C)cc2)cc1 | > 100 | 20.2 | > 100 | 86.9 | > 100 | > 100 | 53.2 | > 100 | > 100 | > 100
O=c1oc(-c2ccc(O)cc2)cc2cc(O)ccc12 | 51.7 | > 100 | 50.5 | 64 | 72.3 | 78.9 | 69.2 | 30.2 | > 100 | 
CCOC(=O)C(=CNc1ccc(N(C2=NCC(C)S2)c2ccc(F)c(Cl)c2)cc1)C(=O)OCC (configuration not stated) | 41.1 | 30.1 | 33.3 | 55.3 | 39.4 | 55.9 | 41.6 | 36.7 | 34 | 
CC(C)=NOC(=O)CNC(=O)C(Cc1ccccc1)NC(=O)C(C)NC(=O)OC(C)(C)C (configuration not stated) | > 100 | > 100 | > 100 | > 100 | > 100 | > 100 | > 100 | > 100 | > 100 | > 100
CC1(C)CO[P@@](=S)(c2ccccn2)O[C@@H]1c1ccccc1 | > 100 | > 100 | > 100 | > 100 | > 100 | > 100 | > 100 | > 100 | > 100 | > 100
O=C(O)c1nc2ccc(C(F)(F)F)cc2nc1Nc1ccc(Cl)c(Cl)c1 | 27.4 |  | 25.7 | 41.6 | 31 | 19.1 | 17.3 | 23.7 | 56.4 | 18
O=c1[nH]nc(-c2ccccc2)n1/N=C/c1cccc([N+](=O)[O-])c1 | > 100 | > 100 | > 100 | > 100 | > 100 | > 100 | > 100 | > 100 | > 100 | > 100
